{"source": "patent US20240351996A1", "about": "“CDK19-SELECTIVE INHIBITORS, AND METHODS OF USE THEREOF” (CZ BIOHUB SF, LLC, priority 2022, published 2024)", "key": {"CDK8": {"biological_target": "CDK8 (Homo sapiens, UniProt P49336)", "sequence (P49336 whole entry)": "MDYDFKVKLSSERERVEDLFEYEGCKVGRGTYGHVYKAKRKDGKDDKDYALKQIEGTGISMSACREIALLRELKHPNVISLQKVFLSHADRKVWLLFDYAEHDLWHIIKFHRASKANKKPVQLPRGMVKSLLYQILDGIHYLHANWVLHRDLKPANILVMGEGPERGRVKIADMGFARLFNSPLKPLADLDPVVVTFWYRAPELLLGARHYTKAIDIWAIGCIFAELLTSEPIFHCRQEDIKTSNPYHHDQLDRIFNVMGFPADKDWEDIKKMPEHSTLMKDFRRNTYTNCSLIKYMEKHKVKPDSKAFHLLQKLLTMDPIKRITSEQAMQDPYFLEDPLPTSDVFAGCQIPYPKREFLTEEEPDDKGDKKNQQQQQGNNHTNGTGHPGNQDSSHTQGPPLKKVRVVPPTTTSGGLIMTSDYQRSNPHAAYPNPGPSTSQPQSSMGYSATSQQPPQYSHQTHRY", "sequence (P24863 whole entry partner)": "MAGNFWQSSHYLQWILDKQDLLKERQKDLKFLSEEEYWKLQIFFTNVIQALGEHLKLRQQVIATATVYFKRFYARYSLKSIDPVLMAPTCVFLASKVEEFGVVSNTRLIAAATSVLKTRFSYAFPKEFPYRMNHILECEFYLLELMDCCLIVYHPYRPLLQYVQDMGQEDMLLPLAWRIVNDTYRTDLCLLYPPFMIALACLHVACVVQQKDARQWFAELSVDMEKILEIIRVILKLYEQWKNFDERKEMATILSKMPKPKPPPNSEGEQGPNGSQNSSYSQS", "test": "LanthaScreen europium kinase binding assay (FRET displacement), CDK8"}, "[1]": {"test": "Liver microsome stability assay (Cyprotex), human", "format": "in vitro ADME", "conditions": "human liver microsomes", "procedure": "(§1) Microsome Assay to Measure Stability: The stability of the compounds was evaluated using a liver cell microsome assay commercially available from Cyprotex (Watertown, MA) (https://www.cyprotex.com/admepk/in-vitro-metabolism/microsomal-stability)."}, "CDK19/CycC": {"biological_target": "CDK19/CycC (Homo sapiens, UniProt Q9BWU1)", "sequence (Q9BWU1 whole entry)": "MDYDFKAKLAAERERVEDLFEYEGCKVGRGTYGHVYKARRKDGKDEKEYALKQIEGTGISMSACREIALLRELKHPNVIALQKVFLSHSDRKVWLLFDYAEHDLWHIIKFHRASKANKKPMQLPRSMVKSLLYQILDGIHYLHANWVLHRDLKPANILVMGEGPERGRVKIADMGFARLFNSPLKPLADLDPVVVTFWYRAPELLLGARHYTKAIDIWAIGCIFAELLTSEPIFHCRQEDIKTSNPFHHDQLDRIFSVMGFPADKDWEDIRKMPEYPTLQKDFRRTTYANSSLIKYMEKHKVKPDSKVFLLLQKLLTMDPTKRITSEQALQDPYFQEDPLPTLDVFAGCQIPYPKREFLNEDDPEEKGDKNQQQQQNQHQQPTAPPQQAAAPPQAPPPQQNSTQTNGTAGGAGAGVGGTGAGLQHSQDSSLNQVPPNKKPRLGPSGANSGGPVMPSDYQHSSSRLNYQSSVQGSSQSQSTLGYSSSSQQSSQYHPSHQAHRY", "sequence (P24863 whole entry partner)": "as the sequence (P24863 whole entry partner) above", "test": "LanthaScreen europium kinase binding assay (FRET displacement), CDK19", "conditions": "for CDK19 Selectivity: CDK19/CDK8 selectivity based on IC50 values; for IC50: his-tagged CDK19/CycC 5 nM, tracer 10 nM, 3 h incubation", "method_in_brief": "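His-tagged CDK19/CycC (5 nM) preincubated 30 min with 10 nM Alexa Fluor 665 ATP-site tracer, 2 nM biotin anti-his antibody and 2 nM europium-streptavidin, then titrated with compound (10^−4.5 to 10^−8 M). TR-FRET (ex 317, em 620/665 nm) read after 3 h at room temperature; duplicates, three independent runs, DMSO-normalized IC50.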"}, "[2]": {"test": "Liver microsome stability assay (Cyprotex), mouse", "format": "in vitro ADME", "conditions": "mouse liver microsomes", "procedure": "as §1"}, "MDA-MB-231 TNBC cells": {"test_system": "MDA-MB-231 TNBC cells", "test": "Triple-negative breast cancer cell death assay (LD50)", "format": "cell-based", "conditions": "MDA-MB-231, 48 h treatment, live cell counts normalized to DMSO", "procedure": "(§2) Triple-Negative Breast Cancer Cell Death Assay to Measure LD50: The efficacy and selectivity of the disclosed compounds was evaluated in a TNBC cell line assay (MDA-MB-231) and/or human foreskin fibroblast 2088 cells, as was protein binding to human serum and microsomal stability of the disclosed compounds, as described herein.\n(§3) Cells from a TNBC cell line (MDA-MB-231) (approximately 100,000 cells) and/or human foreskin fibroblast 2088 cells were seeded into each well of a 6-welled polystyrene treated tissue culture plate and were allowed to attach for 18 h before treatment with the test compound. Cells were then treated every 24 h with a fresh batch of media containing the test compound at one of the respective concentration(s) (Log10 Molar [C]): −5.0, −5.5, −6.0, −6.5, −7.0, −7.5 so that a complete dose-response could be calculated.\n(§4) After 48 h of treatment, adherent cells were fixed with a 4% paraformaldehyde solution and stained with Hoechst 33342 nuclear dye (5 μg/mL). Each well was imaged at 10× magnification on a Keyence BZ-X710 microscope and live cell counts were performed in triplicate for each condition using automated ImageJ computational software. LD50 values represent the percentage of live cells after treatment with the test compound, which was calculated after normalization to the DMSO only treated control group."}, "[3]": {"test_system": "human foreskin fibroblast 2088 cells", "test": "Cell death assay in normal fibroblasts (LD50)", "format": "cell-based", "conditions": "FIG. 1B", "procedure": "as §2, §3, §4"}}}
{"smiles": "CC(C)Cc1ccc(Nc2ncc(Nc3ccnc4ccccc34)cn2)cc1", "note": "[Compound A11]", "values": [{"measurement": "IC50", "setting": "CDK8", "value": 22, "unit": "nM"}, {"measurement": "Human Microsome Stability", "setting": "[1]", "value": 28.7, "unit": "μL/min/mg protein"}, {"measurement": "CDK19 Selectivity", "setting": "CDK19/CycC", "value": 0.9}, {"measurement": "IC50", "setting": "CDK19/CycC", "value": 25, "unit": "nM"}, {"measurement": "Mouse Microsome Stability", "setting": "[2]", "value": 31.3, "unit": "μL/min/mg protein"}, {"measurement": "MDA LD50", "setting": "MDA-MB-231 TNBC cells", "value": 180, "unit": "nM"}]}
{"smiles": "Cc1cnccc1Nc1cnc(Nc2ccc(CC(C)C)cc2)nc1", "note": "[Compound A21]", "values": [{"measurement": "IC50", "setting": "CDK8", "value": 564, "unit": "nM"}, {"measurement": "Human Microsome Stability", "setting": "[1]", "value": 159.0, "unit": "μL/min/mg protein"}, {"measurement": "CDK19 Selectivity", "setting": "CDK19/CycC", "value": 15}, {"measurement": "IC50", "setting": "CDK19/CycC", "value": 38, "unit": "nM"}, {"measurement": "Mouse Microsome Stability", "setting": "[2]", "value": 93.0, "unit": "μL/min/mg protein"}, {"measurement": "MDA LD50", "setting": "MDA-MB-231 TNBC cells", "value": 178, "unit": "nM"}]}
{"smiles": "c1cc(Nc2cnc(Nc3ccc(C4CCC4)cc3)nc2)ccn1", "note": "[Compound A39]", "values": [{"measurement": "IC50", "setting": "CDK8", "value": 19, "unit": "nM"}, {"measurement": "Human Microsome Stability", "setting": "[1]", "value": 7.6, "unit": "μL/min/mg protein"}, {"measurement": "CDK19 Selectivity", "setting": "CDK19/CycC", "value": 2}, {"measurement": "IC50", "setting": "CDK19/CycC", "value": 9.5, "unit": "nM"}, {"measurement": "Mouse Microsome Stability", "setting": "[2]", "value": 38.6, "unit": "μL/min/mg protein"}, {"measurement": "MDA LD50", "setting": "MDA-MB-231 TNBC cells", "value": 158, "unit": "nM"}]}
{"smiles": "CNC(=O)c1cc(Nc2cnc(Nc3ccc(CC(C)C)cc3)nc2)ccn1", "note": "[Compound A47]", "values": [{"measurement": "IC50", "setting": "CDK8", "value": 737, "unit": "nM"}, {"measurement": "concentration at which significant fibroblast cell death was observed", "setting": "[3]", "value": "10,000 nM"}, {"measurement": "CDK19 Selectivity", "setting": "CDK19/CycC", "value": 2.4}, {"measurement": "IC50", "setting": "CDK19/CycC", "value": 308, "unit": "nM"}]}
{"smiles": "CC(C)Cc1ccc(Nc2ncc(Nc3ccncc3OC3CCCC3)cn2)cc1", "note": "[Compound A53]", "values": [{"measurement": "IC50", "setting": "CDK8", "value": 56, "unit": "nM"}, {"measurement": "Human Microsome Stability", "setting": "[1]", "value": 36, "unit": "μL/min/mg protein"}, {"measurement": "CDK19 Selectivity", "setting": "CDK19/CycC", "value": "≥22"}, {"measurement": "IC50", "setting": "CDK19/CycC", "value": "≤ 2.5", "unit": "nM"}, {"measurement": "Mouse Microsome Stability", "setting": "[2]", "value": 19, "unit": "μL/min/mg protein"}, {"measurement": "MDA LD50", "setting": "MDA-MB-231 TNBC cells", "value": 91, "unit": "nM"}]}
